From patent US20200163938A1, “PHARMACEUTICAL COMPOSITION COMPRISING IRON CHELATOR EXHIBITING ANTITUMOR ACTIVITY, ANTIBACTERIAL ACTIVITY AND/OR ANTIVIRUS ACTIVITY, AND HAVING REDUCED SIDE EFFECTS” (priority 2017, published 2020)
≈ marks a conversion by molar mass, not a printed value. Where “and” joins values, the source holds several entries; their conditions need not be identical. Equal values may be shown once. Read-outs that look alike come from different tables or passages of the source.

Tests used:
[1] = system: C. albicans (ATCC10231; Candida albicans); assay: Minimum growth inhibition concentration (MIC); format: cell-based
Protocol: (§1) The dilution series of the chelating agent of each test group was prepared according to a standard method, microbes were inoculated, and then 24 hours later, the microbial growth was confirmed, thereby determining the minimum growth inhibition concentration of the chelating agent of each test group. Microbes used herein were S. aureus (ATCC6538; Staphylococcus aureus), P. aeruginosa (ATCC9027; Pseudomonas aeruginosa) and C. albicans (ATCC10231; Candida albicans). Drugs used herein were oxacillin, vancomycin and deferasirox as positive controls.

[2] = system: P. aeruginosa (ATCC9027; Pseudomonas aeruginosa); assay: Minimum growth inhibition concentration (MIC); format: cell-based; conditions: 24 hours; for MIC: Pseudomonas aeruginosa, ATCC9027
Protocol: as §1

[3] = system: S. aureus (ATCC6538; Staphylococcus aureus); assay: Minimum growth inhibition concentration (MIC); format: cell-based; conditions: for MIC S. aureus / MIC: 24 hours; for MIC: Staphylococcus aureus, ATCC6538
Protocol: as §1

S. mutans (ATCC25175) = assay: Antibacterial activity, turbidity and ATP assay; format: cell-based, Streptococcus mutans; conditions: aerobic culture 37° C., 18 hours; FIGS. 6A, 6B
Protocol: First, the antibacterial activity of a dental caries-causing bacterium, S. mutans (ATCC25175) was examined. With the use of a liquid medium prepared by adding a yeast extract and the chelating agent of each test group to TSB medium, aerobic culture was performed at 37° C. for 18 hours, and then turbidity was found from optical density (OD570 or 595 nm). Cell activity was measured using an ATP assay kit (Kikkoman Corporation). Results were as depicted in FIGS. 6A and 6B.

[4] = system: A. actinomycetemcomitans AaY4 (ATCC); assay: Antibacterial activity, turbidity and ATP assay; format: cell-based, Aggregatibacter actinomycetemcomitans; conditions: anaerobic culture 37° C., 18 hours; FIGS. 7A, 7B
Protocol: A bacterial strain of one of periodontopathic bacteria, A. actinomycetemcomitans, used herein was AaY4 (ATCC). With the use of a liquid medium prepared by adding a yeast extract, sodium bicarbonate and the chelating agent of each test group to TSB medium, anaerobic culture (Anaeropack-anaerobic) was performed at 37° C. for 18 hours. Turbidity was measured using absorbance (OD570 or 595 nm), and cell activity was measured using an ATP assay kit. Results were as depicted in FIGS. 7A and 7B.

[5] = system: Human lung cancer cell line (A549) subcutaneous tumors; assay: In vivo antitumor effects, A549 subcutaneous tumors in nude mice
Protocol: Antitumor effects were confirmed using animal models. Specifically, nude mice (BALB/c nu/nu, 6 weeks old: Clea Japan Inc.) were provided. Human lung cancer cell line (A549) was adjusted at 3×10^6/mouse, and then mixed with Matrigel (BD Biosciences) at 1:1. The thus obtained mixture was administered to mice, thereby forming subcutaneous tumors. At 1 week after the formation of subcutaneous tumors, mice were divided into a negative control group (saline: 4 mice), a test group 9 administration group (test group 9: 3 mice), and a positive control group (deferasirox: 3 mice), and then subjected to oral administration. The dosage of deferasirox was 20 mg/kg/day (5 times/week administration) corresponding to that specified for humans in the package insert. Test group 9 was administered in the same dosage as that of deferasirox. Results were as depicted in FIGS. 4A and 4B.

[6] = format: in vivo; parameters: NEFA: unit not given here; conditions: for Body weight: rats
Protocol: To a negative control group (saline administration; n=6), the same amount of saline was administered. On day 14 after administration, determining life or death, measurement of body weight, physical items (respiration, body temperature, behavior, etc.) were observed. Moreover, blood samples were taken from each group, and the right kidneys and the livers were removed. Results were as depicted in FIG. 5A to 5C and Tables 4 to 9.

[7] = rat blood, oral 200 mg/kg, day 14
[8] = rat blood, oral 1000 mg/kg, day 14
[9] = rat blood, oral 1000 mg/kg, day 14, 1000 mg/kg

With `Cl.O=C(O)[C@H](Cc1c[nH]cn1)NCc1ccc(O)c(O)c1` [Test group 8] the “MIC C. albicans” value ([1]; 24 hours) was over 800 µg/mL, the “MIC P. aeruginosa” value [2] was over 800 µg/mL and the “MIC S. aureus” value [3] was 800 µg/mL. For the same compound, the “antimicrobial effects on S. aureus (in words)” value ([3]; from Table 10) was “antimicrobial effects”.

In the case of `Cl.OCC1OC(O)C(NCc2ccc(O)c(O)c2)C(O)C1O` (centres unmarked) [Test group 5], the “MIC C. albicans” value ([1]; 24 hours) is reported as 800 µg/mL, the “antimicrobial effects on C. albicans (in words)” value ([1]; from Table 10) is reported as “exhibited antimicrobial effects” and the “MIC P. aeruginosa” value [2] is reported as over 800 µg/mL. The “MIC S. aureus” value [3] was 800 µg/mL, the “antimicrobial effects on S. mutans (turbidity, ATP activity)” value (S. mutans (ATCC25175)) was “strong antimicrobial effects” and the “antimicrobial effects on A. actinomycetemcomitans (turbidity, ATP activity)” value [4] was “strong antimicrobial effects”.

With `Cl.O=C(O)c1cc(CNC2C(O)OC(CO)C(O)C2O)ccc1O` (centres unmarked) [Test group 7] the “MIC C. albicans” value ([1]; 24 hours) was over 800 µg/mL, the “MIC P. aeruginosa” value [2] was over 800 µg/mL and the “MIC S. aureus” value [3] was over 800 µg/mL.

In the case of `Cl.O=C(O)c1cc(CN[C@@H](Cc2c[nH]cn2)C(=O)O)ccc1O` [Test group 9], the “in vivo antitumor effects” value ([5]; A549 subcutaneous tumors, nude mice, oral 20 mg/kg/day (5 times/week), FIG. 4A) is reported as “antitumor effects were exhibited to an extent almost equivalent to that in the positive control group”, the body weight change ([5]; mouse, in vivo, po, 20 mg/kg/day) is reported as “no significant change was observed in body weight” and the “death during the experiment” value ([5]; nude mice, oral 20 mg/kg/day (5 times/week)) is reported as “no mice died during the experiment”. For the same compound, the ALP [6, 7] was 695 IU/L, the ALT [6, 7] was 24 IU/L and the AST [6, 7] was 54 IU/L. The BUN [6, 7] was 22.8 mg/dL, the CRE [6, 7] was 0.37 mg/dL and the Ca [6, 7] was 11.1 mg/dL. It also gave a GLU [6, 7] of 214 mg/dL, a K [6, 7] of 4.7 mEQ/L and an LD [6, 7] of 49 IU/L. For the same compound, the NEFA [6, 7] was 59, the Na [6, 7] was 146 mEQ/L and the T-Bil [6, 7] was 0.05 mg/dL. It also gave a TP [6, 7] of 5.5 g/dL, a CRE [6, 8] of 0.36 mg/dL and a T-Bil [6, 8] of 0.06 mg/dL. The ALP [6, 9] was 563 IU/L and 502 IU/L, the ALT [6, 9] was 24 IU/L and 25 IU/L and the AST [6, 9] was 59 IU/L and 58 IU/L. For the same compound, the BUN [6, 9] was 22.5 mg/dL and 24.4 mg/dL, the Ca [6, 9] was 10.0 mg/dL and 11.2 mg/dL and the GLU [6, 9] was 195 mg/dL and 301 mg/dL. For the same compound, the K [6, 9] was 3.6 mEQ/L and 4.8 mEQ/L, the LD [6, 9] was 78 IU/L and 70 IU/L and the Na [6, 9] was 143 mEQ/L and 144 mEQ/L. For the same compound, the TP [6, 9] was 5.4 g/dL and 5.9 g/dL, the Body weight ([6]; oral 200 mg/kg) was 190.97 g and the Body weight ([6]; oral 1000 mg/kg, 1000 mg/kg) was 177.11 g and 183.15 g. The “MIC C. albicans” value ([1]; 24 hours) was over 500 µg/mL, the “MIC P. aeruginosa” value [2] was over 500 µg/mL and the “MIC S. aureus” value [3] was over 500 µg/mL.

Work on `CN[C@H](CC(C)C)C(=O)N[C@H]1C(=O)N[C@@H](CC(N)=O)C(=O)N[C@H]2C(=O)N[C@H]3C(=O)N[C@H](C(=O)N[C@H](C(=O)O)c4cc(O)cc(O)c4-c4cc3ccc4O)[C@H](O)c3ccc(c(Cl)c3)Oc3cc2cc(c3O[C@@H]2O[C@H](CO)[C@@H](O)[C@H](O)[C@H]2O[C@H]2C[C@](C)(N)[C@H](O)[C@H](C)O2)Oc2ccc(cc2Cl)[C@H]1O` [Vancomycin, vancomycin, reference compound] yielded an MIC [2] of over 50 µg/mL and an MIC [3] of 1.6 µg/mL (≈ 1.1 µM).

`Cc1onc(-c2ccccc2)c1C(=O)N[C@@H]1C(=O)N2[C@@H]1SC(C)(C)[C@@H]2C(=O)O` [Oxacillin, oxacillin, reference compound] gave an MIC [2] of 1020 µg/mL (≈ 2550 µM) and an MIC [3] of 0.25 µg/mL (≈ 0.623 µM).

In the case of `O=C(O)c1ccc(-n2nc(-c3ccccc3O)nc2-c2ccccc2O)cc1` [Deferasirox, deferasirox, reference compound], the MIC ([1]; Candida albicans, ATCC10231, 24 hours) is reported as over 250 µg/mL, the MIC [2] is reported as over 250 µg/mL and the MIC [3] is reported as 250 µg/mL (≈ 670 µM).
